Measured values taken from ChEMBL document CHEMBL4834480, “Discovery of 3,5-Dimethyl-4-Sulfonyl-1H-Pyrrole-Based Myeloid Cell Leukemia 1 Inhibitors with High Affinity, Selectivity, and Oral Bioavailability” (J Med Chem, 2021).
Active and inactive are the calls of the source. The rule behind the calls is not given here.

Experiments:
K562 [1] = test: Induction of apoptosis in human K562 cells assessed as activation of caspase 3 up to 5 uM after 4 hrs by luminescence based microplate reader assay; assay type: functional, cell-based; conditions: dose microM <=5, time 4.0 hrs
MV4-11 [2] = test: Antitumor activity against human MV4-11 cells xenografted in BALB/c nude mouse assessed as tumor growth inhibition by measuring T/C ratio at 20 mg/kg, ip administered every two days for 14 days relative to control; assay type: functional; conditions: time 14 day
[3] = Intrinsic clearance in human liver microsomes; assay type: ADME, Microsome; conditions: read-out: CLH
MV4-11 [4] = test: Antiproliferative activity against human MV4-11 cells assessed as decrease in cell viability measured after 72 hrs by MTT assay; assay type: functional, cell-based; conditions: MV4-11, 72 h
[5] = Half life in Sprague-Dawley rat at 10 mg/kg, po measured up to 24 hrs by LC-MS/MS analysis; assay type: ADME, organism-based; conditions: in vivo
[6] = Toxicity in BALB/c nude mouse xenografted with human MV4-11 cells assessed as effect on kidney weight at 20 mg/kg, ip administered every two days for 14 days; assay type: organism-based; conditions: in vivo, 336 h, time 14 day
[7] = Oral bioavailability in Sprague-Dawley rat at 10 mg/kg measured up to 24 hrs by LC-MS/MS analysis; assay type: ADME, organism-based; conditions: in vivo
[8] = Apparent volume of distribution in Sprague-Dawley rat at 10 mg/kg, po measured up to 24 hrs by LC-MS/MS analysis; assay type: ADME, organism-based; conditions: in vivo
[9] = Half life in Sprague-Dawley rat at 3 mg/kg, iv measured up to 24 hrs by LC-MS/MS analysis; assay type: ADME, organism-based; conditions: in vivo
[10] = Toxicity in BALB/c nude mouse xenografted with human MV4-11 cells assessed as effect on kidney at 20 mg/kg, ip administered every two days for 14 days by hematoxyin-eosin staining based analysis; assay type: organism-based; conditions: in vivo, 336 h, time 14 day
[11] = biological target: T1, Induced myeloid leukemia cell differentiation protein Mcl-1 (Homo sapiens, UniProt Q07820); test: Displacement of BAK from MCL1 in human NCI-H929 cells after 4 hrs by co-immunoprecipitation assay; assay type: cell-based; conditions: dose 0.1-0.5 µM
[12] = Toxicity in BALB/c nude mouse xenografted with human MV4-11 cells assessed as effect on body weight at 20 mg/kg, ip administered every two days for 14 days; assay type: organism-based; conditions: in vivo, 336 h, time 14 day
[13] = biological target: T1, Induced myeloid leukemia cell differentiation protein Mcl-1; test: Inhibition of FITC-labeled Bak BH3 peptide binding to GST-tagged MCL1 (171 to 327 residues) (unknown origin) expressed in Escherichia coli BL21 (DE3) incubated for 30 mins fluorescence polarization-based competitive binding assay
CYP2C9 = CYP2C9 (Homo sapiens, UniProt P11712); test: Inhibition of CYP2C9 (unknown origin) at 10 uM preincubated for 5 min followed by NADPH addition and measured after 20 mins by LC-MS/MS analysis relative to control; assay type: ADME; conditions: time 25 min
[14] = Half life in human liver microsomes; assay type: ADME, Microsome
MV4-11 [15] = test: Antitumor activity against human MV4-11 cells xenografted in BALB/c nude mouse assessed as induction of tumor necrosis at 60 mg/kg, po administered every two days for 14 days by hematoxyin-eosin staining based analysis; assay type: functional, organism-based; conditions: time 14.0 day
P-gp = P-gp (Homo sapiens, UniProt P08183); test: Substrate activity at P-gp in human Caco-2 cells assessed as efflux ratio of permeability by LC-MS/MS analysis; assay type: ADME, cell-based
CYP3A4 = CYP3A4 (Homo sapiens, UniProt P08684); test: Inhibition of CYP3A4 (unknown origin) at 10 uM preincubated for 5 min followed by NADPH addition and measured after 20 mins by LC-MS/MS analysis relative to control; assay type: ADME; conditions: time 25 min
K562 [16] = test: Induction of apoptosis in human K562 cells assessed as activation of caspase 7 up to 5 uM after 4 hrs by luminescence based microplate reader assay; assay type: functional, cell-based; conditions: dose microM <=5, time 4.0 hrs
[17] = Toxicity in BALB/c nude mouse xenografted with human MV4-11 cells assessed as effect on body weight at 60 mg/kg, po administered every two days for 14 days; assay type: organism-based; conditions: in vivo, 336 h, time 14 day
[18] = Stability of the compound in simulated intestinal fluid assessed as parent compound remaining measured after 6 hrs; assay type: ADME; conditions: read-out: Stabilty
[19] = biological target: T2, Apoptosis regulator Bcl-2 (Homo sapiens, UniProt P10415); test: Inhibition of FITC-labeled Bak BH3 peptide binding to GST-tagged BCL2 (1 to 205 residues) (unknown origin) expressed in Escherichia coli BL21 (DE3) at 10 uM incubated for 30 mins fluorescence polarization-based competitive binding assay relative to control
[20] = biological target: T2, Apoptosis regulator Bcl-2; test: Binding affinity to human partial length BCL2 (M1 to D211 residues) expressed in bacterial expression system by BCL2SCAN assay
[21] = Intrinsic clearance in rat liver microsomes; assay type: ADME, Microsome; conditions: read-out: CLH
[22] = Stability of the compound in mouse plasma assessed as parent compound remaining measured after 2 hrs by LC-MS/MS analysis; assay type: ADME, cell-free; conditions: read-out: Stabilty
[23] = biological target: T3, Bcl-2-related protein A1 (Homo sapiens) (UniProt Q16548); test: Inhibition of FITC-labeled Bak BH3 peptide binding to GST-tagged BFL1 (1 to 151 residues) (unknown origin) expressed in Escherichia coli BL21 (DE3) at 10 uM incubated for 30 mins fluorescence polarization-based competitive binding assay relative to control
T3 sequence (whole entry): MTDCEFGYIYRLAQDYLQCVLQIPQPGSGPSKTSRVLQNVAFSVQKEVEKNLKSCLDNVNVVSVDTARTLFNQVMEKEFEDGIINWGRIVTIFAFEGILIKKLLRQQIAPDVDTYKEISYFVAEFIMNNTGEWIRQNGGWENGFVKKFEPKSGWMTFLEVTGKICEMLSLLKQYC

[24] = Toxicity in BALB/c nude mouse xenografted with human MV4-11 cells assessed as effect on liver at 60 mg/kg, po administered every two days for 14 days by hematoxyin-eosin staining based analysis; assay type: organism-based; conditions: in vivo, 336 h, time 14 day
[25] = Stability in rat liver microsomes assessed as parent compound remaining preincubated for 5 mins followed by NADPH addition and measured after 30 mins by LC-MS/MS analysis; assay type: ADME, Microsome; conditions: time 35 min, read-out: Stabilty
[26] = Stability of the compound in simulated gastric fluid assessed as parent compound remaining measured after 6 hrs; assay type: ADME; conditions: read-out: Stabilty
MV4-11 [27] = test: Antitumor activity against human MV4-11 cells xenografted in BALB/c nude mouse assessed as induction of tumor necrosis at 20 mg/kg, ip administered every two days for 14 days by hematoxyin-eosin staining based analysis; assay type: functional, organism-based; conditions: time 14.0 day

T1 sequence (Q07820 whole entry): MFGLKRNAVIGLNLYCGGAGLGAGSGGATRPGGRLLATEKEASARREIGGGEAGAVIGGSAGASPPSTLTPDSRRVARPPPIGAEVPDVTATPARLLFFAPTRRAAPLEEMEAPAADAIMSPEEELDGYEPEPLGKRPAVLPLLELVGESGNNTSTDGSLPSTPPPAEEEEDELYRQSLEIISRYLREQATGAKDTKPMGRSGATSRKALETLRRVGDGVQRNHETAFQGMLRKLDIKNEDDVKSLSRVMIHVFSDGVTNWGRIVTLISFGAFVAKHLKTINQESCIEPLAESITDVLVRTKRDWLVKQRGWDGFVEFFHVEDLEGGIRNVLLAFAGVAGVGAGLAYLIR
T2 sequence (P10415 whole entry, the tested form may be a part): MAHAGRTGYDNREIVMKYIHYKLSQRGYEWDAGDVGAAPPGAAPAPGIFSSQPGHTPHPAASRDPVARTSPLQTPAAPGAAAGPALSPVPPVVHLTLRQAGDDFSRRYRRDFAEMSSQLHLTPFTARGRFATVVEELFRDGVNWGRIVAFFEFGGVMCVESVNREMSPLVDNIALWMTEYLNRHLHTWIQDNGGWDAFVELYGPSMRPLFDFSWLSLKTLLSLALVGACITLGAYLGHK
Chain of P-gp (P08183 whole entry): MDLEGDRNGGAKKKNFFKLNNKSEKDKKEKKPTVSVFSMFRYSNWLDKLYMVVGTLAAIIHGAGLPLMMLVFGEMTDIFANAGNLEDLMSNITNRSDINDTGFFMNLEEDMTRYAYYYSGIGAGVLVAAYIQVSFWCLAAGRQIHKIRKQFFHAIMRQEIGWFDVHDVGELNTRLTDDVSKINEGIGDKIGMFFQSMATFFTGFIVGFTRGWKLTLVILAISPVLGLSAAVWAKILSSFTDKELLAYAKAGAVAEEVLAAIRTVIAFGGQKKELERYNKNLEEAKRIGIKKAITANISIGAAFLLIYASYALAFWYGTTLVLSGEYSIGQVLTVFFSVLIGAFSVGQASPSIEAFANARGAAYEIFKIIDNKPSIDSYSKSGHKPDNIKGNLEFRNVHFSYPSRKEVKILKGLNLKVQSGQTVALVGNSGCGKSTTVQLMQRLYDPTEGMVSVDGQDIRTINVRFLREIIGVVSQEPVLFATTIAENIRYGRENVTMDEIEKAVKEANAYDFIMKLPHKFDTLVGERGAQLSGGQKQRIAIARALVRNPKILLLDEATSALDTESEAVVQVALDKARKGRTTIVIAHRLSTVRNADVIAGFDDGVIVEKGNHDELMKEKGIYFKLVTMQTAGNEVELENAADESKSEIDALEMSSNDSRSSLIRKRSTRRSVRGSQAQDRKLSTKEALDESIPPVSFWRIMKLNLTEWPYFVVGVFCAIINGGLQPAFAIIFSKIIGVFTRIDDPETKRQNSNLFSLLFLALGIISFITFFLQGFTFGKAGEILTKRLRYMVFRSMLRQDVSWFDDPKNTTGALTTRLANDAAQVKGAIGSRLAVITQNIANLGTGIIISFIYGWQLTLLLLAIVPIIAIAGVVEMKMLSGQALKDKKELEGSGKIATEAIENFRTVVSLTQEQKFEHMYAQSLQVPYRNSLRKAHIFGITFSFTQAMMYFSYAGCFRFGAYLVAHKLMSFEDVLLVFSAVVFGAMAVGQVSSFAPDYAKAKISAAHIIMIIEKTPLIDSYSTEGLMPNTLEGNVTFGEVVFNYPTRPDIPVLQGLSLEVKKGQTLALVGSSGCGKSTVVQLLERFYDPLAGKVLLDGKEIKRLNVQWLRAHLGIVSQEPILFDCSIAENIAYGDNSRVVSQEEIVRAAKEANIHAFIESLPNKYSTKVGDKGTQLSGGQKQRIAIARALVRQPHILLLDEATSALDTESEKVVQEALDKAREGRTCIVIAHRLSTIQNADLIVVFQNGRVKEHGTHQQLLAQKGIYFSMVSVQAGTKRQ
Chain of CYP3A4 (P08684 whole entry): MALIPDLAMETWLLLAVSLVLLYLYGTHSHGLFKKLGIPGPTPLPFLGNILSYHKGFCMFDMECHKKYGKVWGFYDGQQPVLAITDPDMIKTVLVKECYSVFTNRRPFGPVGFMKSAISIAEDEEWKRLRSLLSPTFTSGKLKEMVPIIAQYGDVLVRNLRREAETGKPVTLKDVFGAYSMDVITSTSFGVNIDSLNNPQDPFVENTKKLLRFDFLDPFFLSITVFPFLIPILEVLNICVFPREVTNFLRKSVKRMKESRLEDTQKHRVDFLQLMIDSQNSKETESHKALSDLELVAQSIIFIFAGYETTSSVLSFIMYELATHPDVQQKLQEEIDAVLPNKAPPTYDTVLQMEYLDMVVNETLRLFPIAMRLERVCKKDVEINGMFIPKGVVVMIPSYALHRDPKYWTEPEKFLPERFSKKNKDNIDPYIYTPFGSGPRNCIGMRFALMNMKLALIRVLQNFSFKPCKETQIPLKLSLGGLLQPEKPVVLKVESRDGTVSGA
Chain of CYP2C9 (P11712 whole entry): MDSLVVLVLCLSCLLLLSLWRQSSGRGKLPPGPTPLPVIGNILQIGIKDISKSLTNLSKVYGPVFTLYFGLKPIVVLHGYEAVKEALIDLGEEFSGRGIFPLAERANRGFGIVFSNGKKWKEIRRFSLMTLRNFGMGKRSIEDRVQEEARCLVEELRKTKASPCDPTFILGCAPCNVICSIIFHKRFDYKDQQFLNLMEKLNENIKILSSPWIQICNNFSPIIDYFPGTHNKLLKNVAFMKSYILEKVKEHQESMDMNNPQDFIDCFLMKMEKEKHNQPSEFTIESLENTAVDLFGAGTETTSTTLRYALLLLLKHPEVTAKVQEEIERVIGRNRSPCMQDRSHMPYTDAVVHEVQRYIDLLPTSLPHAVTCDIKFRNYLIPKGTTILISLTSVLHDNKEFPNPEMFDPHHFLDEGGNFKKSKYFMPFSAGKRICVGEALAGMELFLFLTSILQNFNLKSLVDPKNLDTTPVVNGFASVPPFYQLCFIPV

SMILES: CC(=O)c1ccc(S(=O)(=O)c2c(C)c(C(=O)O)n(CCCOc3cc(C)c(Cl)c(C)c3)c2C)cc1
- Activity (K562 [1]): inactive
- T/C (MV4-11 [2]): 5.52%
- microsomal CLint [3]: 67.5 µL/min/mg
- IC50 (MV4-11 [4]): 700 nM
- half-life [5]: 2.1 h
- Activity [6]: Non-Toxic
- bioavailability [7]: 41.3%
- Vz [8]: 6.65475 L/kg
- half-life [9]: 2.3 h
- Activity [10]: Non-Toxic
- inhibition [11]: Dose-Dependent Effect
- Activity [12]: Non-Toxic
- Ki [13]: 20 nM
- inhibition at 20 min, 10 µM (CYP2C9): 26%
- half-life [14]: 0.83 h
- Activity (MV4-11 [15]): Active
- efflux ratio (P-gp): 0.1
- inhibition at 20 min, 10 µM (CYP3A4): 29.4%
- Activity (K562 [16]): inactive
- Activity [17]: Non-Toxic
- remaining at 6 h [18]: 85.2%
- inhibition [19]: 10%
- Kd [20]: > 10000 nM
- microsomal CLint [21]: 31.4 µL/min/mg
- remaining at 2 h [22]: 100%
- inhibition [23]: 1.57%
- Activity [24]: Non-Toxic
- remaining at 0.5 h [25]: 58.1%
- remaining at 6 h [26]: 84.5%
- Activity (MV4-11 [27]): Active
